This passage reports remaining activity results from PMC8286840, “Identifying SARS-CoV-2 antiviral compounds by screening for small molecule inhibitors of Nsp3 papain-like protease” (Biochemical Journal, 2021).

The target of test [1] is T1, SARS-CoV-2 PLpro (nsp3 1564–1878) (Severe acute respiratory syndrome coronavirus 2, UniProt P0DTD1). Put plainly: biochemical. Details: FRET-quenched peptide (Pro3) cleavage by PLpro, 10 min pre-incubation, slope over 20 min, normalised to no-compound control. The conditions noted are these: high concentration screen, read-out: % of control remaining.
In test [2] the target is T1, SARS-CoV-2 PLpro (nsp3 1564–1878). The test can be described thus: biochemical. Details: FRET-quenched peptide (Pro3) cleavage by PLpro, 10 min pre-incubation, slope over 20 min, normalised to no-compound control. The conditions noted are these: low concentration screen, read-out: % of control remaining.

Counter-ions that a name gives are not always drawn. Like-named read-outs stand apart in the source and are kept apart here. Where a SMILES comes first, the peptide text is derived from it.

On to `CCCCCCCCCCC[C@@H](C[C@@H]1OC(=O)[C@H]1CCCCCC)OC(=O)[C@H](CC(C)C)NC=O` [Orlistat], for which, in test [1] (Well no.=7366), the remaining activity at 3.75 µM was 101%. The remaining activity at 1.25 µM in test [2] (Well no.=7366) came to 101%.

`CC(COc1ccc(/C=C/c2ccccc2)cc1)[N+](C)(C)C` (stereo not drawn) [N,N,N-trimethyl-1-(4-trans-stilbenoxy)-2-propylammonium iodide]: the remaining activity at 3.75 µM in test [1] (Well no.=1531) turned out to be 99.7%. The remaining activity at 1.25 µM in test [2] (Well no.=1531) was 98.1%.

For `C[N+](C)(C)CC(=O)O` [Betaine hydrochloride], the remaining activity at 3.75 µM in test [1] (Well no.=77) was determined as 103%. In addition, in test [2] (Well no.=77), the remaining activity at 1.25 µM was determined as 101%.

With `NC(=O)CN1CC(O)CC1=O` (centres unmarked) [Oxiracetam], in test [1] (Well no.=1040), the remaining activity at 3.75 µM turned out to be 97.5%. In test [2] (Well no.=1040), the remaining activity at 1.25 µM came out at 91.2%.

Take `COc1ccc2cc(OCC3(C(=O)O)CN(C(=O)c4ccc(F)cc4)C3)ccc2c1` [1-(4-fluorobenzoyl)-3-(((6-methoxynaphthalen-2-yl)oxy)methyl)azetidine-3-carboxylic acid]: the remaining activity at 3.75 µM in test [1] (Well no.=5909) was 102%. For the same compound, the remaining activity at 1.25 µM in test [2] (Well no.=5909) was 103%.

Turning to `Clc1ccccc1CN1CCc2sccc2C1` [Ticlopidine (hydrochloride)], the remaining activity at 3.75 µM was 109% in test [1] (Well no.=6270) and 100% in test [1] (Well no.=8213). The remaining activity at 1.25 µM in test [2] (Well no.=6270) is 107%; in test [2] (Well no.=8213), 108%.

Take `CC(C(=O)O)c1ccc2c(c1)CC(=O)c1ccccc1S2` (centres unmarked) [Zaltoprofen]: the remaining activity at 3.75 µM in test [1] (Well no.=4879) is 97.2%. For the same compound, the remaining activity at 1.25 µM in test [2] (Well no.=4879) is 96.8%.

On to `Nc1[nH]cnc2ncnc1-2` [Adenine], for which the remaining activity at 3.75 µM in test [1] (Well no.=5004) amounted to 107%; in test [1] (Well no.=7253), 98.1%. The remaining activity at 1.25 µM in test [2] (Well no.=5004) stood at 108%; in test [2] (Well no.=7253), 101%.

As for `c1coc(CNc2ncnc3[nH]cnc23)c1` [Kinetin], the remaining activity at 3.75 µM in test [1] (Well no.=3358) was determined as 97.3%. Further, the remaining activity at 1.25 µM in test [2] (Well no.=3358) was 95.6%.

For the compound `O=C(COc1cccc2c(=O)[nH]ccc12)c1ccccc1` [UPF 1069], the remaining activity at 3.75 µM in test [1] (Well no.=4828) worked out at 96.4%. In addition, in test [2] (Well no.=4828), the remaining activity at 1.25 µM amounted to 94.8%.

Turning to `CC(=O)OCC1=C(C(=O)O)N2C(=O)[C@@H](N)[C@H]2SC1` [7-Aminocephalosporanic acid], the remaining activity at 3.75 µM in test [1] (Well no.=5286) came to 96%. Further, in test [2] (Well no.=5286), the remaining activity at 1.25 µM came to 98.5%.

With `Brc1c(NC2=NCCN2)ccc2nccnc12` [UK 14,304], the remaining activity at 3.75 µM in test [1] (Well no.=1238) was 97.9%. For the same compound, the remaining activity at 1.25 µM in test [2] (Well no.=1238) amounted to 98.9%.

On to `N=C(N)c1ccc(OCCCCCOc2ccc(C(=N)N)cc2)cc1` [Pentamidine], for which the remaining activity at 3.75 µM in test [1] (Well no.=1766) stood at 99.6%. Besides, the remaining activity at 1.25 µM in test [2] (Well no.=1766) turned out to be 97.3%.

With `CN1C[C@@H]2c3ccccc3Oc3ccc(Cl)cc3[C@H]2C1` (racemic) [Asenapine (maleate)], in test [1] (Well no.=6513), the remaining activity at 3.75 µM stood at 103%. The remaining activity at 1.25 µM in test [2] (Well no.=6513) amounted to 102%.

Regarding `N#CC(C#N)=Cc1ccc([N+](=O)[O-])c(O)c1` [Tyrphostin AG 126], the remaining activity at 3.75 µM in test [1] (Well no.=1518) was 95.4%. Besides, in test [2] (Well no.=1518), the remaining activity at 1.25 µM was 100%.

On to `CC1(C)O[C@@H]2[C@@H](CO[C@@]3(COS(N)(=O)=O)OC(C)(C)O[C@@H]23)O1` [Topiramate], for which the remaining activity at 3.75 µM in test [1] (Well no.=4853) came out at 104%; in test [1] (Well no.=7527), 100%. In addition, the remaining activity at 1.25 µM in test [2] (Well no.=4853) amounted to 101%; in test [2] (Well no.=7527), 102%.

In the case of `c1cnc2cc3c(cc2n1)[C@@H]1CNC[C@H]3C1` [Varenicline tartrate], the remaining activity at 3.75 µM in test [1] (Well no.=4855) is 103%. Besides, the remaining activity at 1.25 µM in test [2] (Well no.=4855) was 98.1%.

Regarding `Cc1cc(CN2CCN(c3c(Br)cnc4nc(-c5ccc(N6CCN(C)CC6)cc5)[nH]c34)CC2)no1` [CCT137690], the remaining activity at 3.75 µM in test [1] (Well no.=5033) was 99.3%. In test [2] (Well no.=5033), the remaining activity at 1.25 µM was found to be 98%.

Regarding `CC(=O)c1ccc2c(c1)[C@H](NC(=O)c1ccc(F)c(Cl)c1)[C@H](O)C(C)(C)O2` [Tonabersat], in test [1] (Well no.=5960), the remaining activity at 3.75 µM was 94.8%. In addition, the remaining activity at 1.25 µM in test [2] (Well no.=5960) was 92.7%.

Turning to `CC[C@H](C)[C@@H]1NC(=O)[C@H](Cc2ccc(O)cc2)NC(=O)[C@@H](N)CSSC[C@@H](C(=O)N2CCC[C@H]2C(=O)N[C@@H](CC(C)C)C(=O)NCC(N)=O)NC(=O)[C@H](CC(N)=O)NC(=O)[C@H](CCC(N)=O)NC1=O` [Oxytocin (acetate)], the remaining activity at 3.75 µM in test [1] (Well no.=8107) was found to be 104%. Besides, the remaining activity at 1.25 µM in test [2] (Well no.=8107) was 107%.

On to `NCCCC[C@H](NC(=O)[C@H](Cc1c[nH]c2ccccc12)NC(=O)[C@@H](N)CCCCN)C(=O)O` [H-Lys-Trp-Lys-OH] (H-Lys-Trp-Lys-OH), for which the remaining activity at 3.75 µM in test [1] (Well no.=8180) was 103%. Further, the remaining activity at 1.25 µM in test [2] (Well no.=8180) came to 103%.

Regarding `CCCCc1c(-c2ccc(O)cc2)[nH]c2nccnc12` [Aloisine A, RP107], in test [1] (Well no.=2318), the remaining activity at 3.75 µM came out at 95.3%. In test [2] (Well no.=2318), the remaining activity at 1.25 µM worked out at 97.4%.

`NC(N)=NCc1cccc(I)c1` [m -Iodobenzylguanidine hemisulfate salt]: in test [1] (Well no.=6075), the remaining activity at 3.75 µM was 97.8%. Further, the remaining activity at 1.25 µM in test [2] (Well no.=6075) amounted to 99.1%.

As to `CNc1nc(-c2ccc3c(N)n[nH]c3c2)cc(N2C[C@@H](C(=O)NC3CCCCC3)CC[C@H]2C)n1` [GSK2334470], the remaining activity at 3.75 µM in test [1] (Well no.=5464) came to 101%. Moreover, the remaining activity at 1.25 µM in test [2] (Well no.=5464) turned out to be 94.9%.

Consider `C=C1[C@@H](C)[C@H]2[C@H](Cc3ccccc3)NC(=O)[C@]23[C@H](OC(C)=O)/C=C/[C@@](C)(O)C(=O)[C@@H](C)C/C=C/[C@H]3[C@@H]1O` [Cytochalasin D], for which the remaining activity at 3.75 µM in test [1] (Well no.=3581) turned out to be 99.7%. Moreover, in test [2] (Well no.=3581), the remaining activity at 1.25 µM came to 98.2%.

In the case of `C[C@H](CCC(=O)NCC(=O)O)[C@H]1CC[C@H]2[C@@H]3[C@H](O)C[C@@H]4C[C@H](O)CC[C@]4(C)[C@H]3C[C@H](O)[C@]12C` [Glycocholic acid], the remaining activity at 3.75 µM in test [1] (Well no.=7068) was found to be 105%; in test [1] (Well no.=7165), 101%. In addition, the remaining activity at 1.25 µM came to 106% in test [2] (Well no.=7068) and 104% in test [2] (Well no.=7165).

In the case of `CC(C)c1cccc(C(C)C)c1O` [Propofol], the remaining activity at 3.75 µM in test [1] (Well no.=544) worked out at 103%; in test [1] (Well no.=1893) it was 89.6%. Besides, the results for the remaining activity at 1.25 µM in test [2] (Well no.=544) and in test [2] (Well no.=1893) were 104% and 92.7%, respectively.

As to `CCN(CC)CCNC(=O)c1cc(Cl)c(N)cc1OC` [Metoclopramide hydrochloride], in test [1] (Well no.=966), the remaining activity at 3.75 µM came to 103%. For the same compound, the remaining activity at 1.25 µM in test [2] (Well no.=966) was 100%.

Regarding `Cn1c(=O)cc(N2CCC[C@@H](N)C2)n(Cc2cc(F)ccc2C#N)c1=O` [Trelagliptin], the remaining activity at 3.75 µM in test [1] (Well no.=8480) came to 98.9%. Also, the remaining activity at 1.25 µM in test [2] (Well no.=8480) was 99.1%.
